Patent publication US20230257351A1, “SUBSTITUTED N-[…] HAVING P2X4 RECEPTOR ANTAGONISTIC ACTIVITY” (Bayer Aktiengesellschaft, priority 2020, published 2023)

How the values were obtained:
human P2X4 = target: T1, human P2X4 (Homo sapiens, UniProt Q99571); assay: Human P2X4 HEK Cell FLIPR Assay; format: cell-based; settings: HEK293 stably expressing human P2X4, agonist Bz-ATP 3 μM (EC80); for IC50: read-out: Human P2X4 HEK Cells (FLIPR Assay) avg IC50
T1 construct: expressed in transfected cells
T1 sequence (Q99571 1-388): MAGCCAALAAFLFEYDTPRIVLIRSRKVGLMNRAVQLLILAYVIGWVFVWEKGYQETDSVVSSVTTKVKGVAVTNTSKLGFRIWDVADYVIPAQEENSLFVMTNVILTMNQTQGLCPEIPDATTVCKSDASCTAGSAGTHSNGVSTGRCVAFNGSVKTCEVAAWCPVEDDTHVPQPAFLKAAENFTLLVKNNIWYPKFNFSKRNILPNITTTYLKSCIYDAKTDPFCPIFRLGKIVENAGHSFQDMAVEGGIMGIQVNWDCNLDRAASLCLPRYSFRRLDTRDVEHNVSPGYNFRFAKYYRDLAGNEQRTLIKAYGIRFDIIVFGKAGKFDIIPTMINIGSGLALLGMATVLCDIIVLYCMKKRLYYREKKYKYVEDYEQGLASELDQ
Outline: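 Compounds were preincubated 30 min at room temperature on Fluo8-AM-loaded HEK293 cells stably expressing human P2X4. The response was the calcium fluorescence rise on Bz-ATP addition.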

rat P2X4 = target: T2, rat P2X4 (Rattus norvegicus, UniProt P51577); assay: FLIPR Method for Rat P2X4 1321N1 Astrocytoma Cells; format: cell-based; settings: 1321N1 stably expressing rat P2X4; agonist MgATP 5 μM (EC80)
T2 construct: expressed in transfected cells
T2 sequence (P51577 1-388): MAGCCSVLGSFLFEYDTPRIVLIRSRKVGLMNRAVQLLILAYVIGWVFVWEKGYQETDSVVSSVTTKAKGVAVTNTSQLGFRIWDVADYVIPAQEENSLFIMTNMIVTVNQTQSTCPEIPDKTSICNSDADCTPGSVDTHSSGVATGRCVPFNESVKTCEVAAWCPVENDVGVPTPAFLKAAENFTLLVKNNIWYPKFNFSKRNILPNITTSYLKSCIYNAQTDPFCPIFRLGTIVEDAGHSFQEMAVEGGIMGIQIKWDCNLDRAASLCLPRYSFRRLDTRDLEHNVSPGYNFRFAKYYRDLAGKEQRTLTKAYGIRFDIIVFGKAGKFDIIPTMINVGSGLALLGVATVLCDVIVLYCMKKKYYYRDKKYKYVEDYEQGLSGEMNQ
Protocol: Compounds were tested on a 1321N1 cell line stably expressing rat P2X4. Cells were cultured on collagen-I-coated 384-well plates at a density of 10,000 cells/well and incubated overnight at 37° C., 5% CO2. P2X4 function was assessed by measuring intracellular calcium fluxes caused by Magnesium-ATP (MgATP) using the calcium-chelating dye Fluo8-AM (Molecular Devices) with the Fluorescent Imaging Plate Reader Tetra (FLIPR^Tetra; Molecular Devices CA). On the day of the assay, the medium was removed and the cells were incubated for 30 minutes at 37° C. and 5% CO2 in 30 μl of dye buffer (Hank's balanced salt solution, 10 mM HEPES, 1.8 mM CaCl2, 1 mM MgCl2, 2 mM probenecid, 5 mM D-glucose monohydrate, 5 μM Fluo8-AM, pH=7.4).
Compounds diluted in probenecid buffer (Hank's balanced salt solution, 10 mM HEPES, 1.8 mM CaCl2, 1 mM MgCl2, 2 mM probenecid, 5 mM D-glucose monohydrate, pH=7.4) at ten concentrations ranging from 25 μM to 1 nM (final concentration) were dispensed and incubated for 30 minutes at room temperature. The agonist, MgATP (Sigma-Aldrich Chemie GmbH, DE), was added at a final concentration of 5 μM, representing the EC80 routinely determined. The final assay volume was 50 μl and final DMSO concentration was 0.5%.
The fluorescence intensity reflecting intracellular calcium changes was recorded before and after MgATP addition, at an excitation and emission wavelengths of 470-495 nm and 515-575 nm respectively.
The compounds were tested in triplicates and fluorescence intensity raw data normalized to the agonist control and fitted to the four-parameter logistic equation:
Y=Bottom+(Top−Bottom)/(1+10^((Log IC50−X)*HillSlope))
Assay plate acceptance was based on the signal window (S/B)[…] and the reference compound pIC50 within ±[…] the mean of historic pIC50 of the compound. Failure to meet two of the three criteria determined exclusion of the plate's results. In Table 10 below the results for the assays are reported

| Human P2X4 HEK Cells (FLIPR Assay) avg Efficacy (human P2X4) [%] | IC50 (human P2X4) [nM] | IC50 (rat P2X4) [nM] | Rat P2X4 1321N1 Astrocytoma Cells (FLIPR Assay) avg Efficacy (rat P2X4) [%] | Structure (SMILES) |
| --- | --- | --- | --- | --- |
| 100 | 455 | 143 | 100 | CC(=O)N(c1ccc(F)c(Cl)c1)c1cc(NC(=O)Cc2c(Cl)cccc2Cl)ccn1 [Example 53, N-(3-chloro-4-fluorophenyl)-N-{4-[2-(2,6-dichlorophenyl)acetamido]pyridin-2-yl}acetamide] |
| 97 | 269 | 447 | 97 | CC(=O)N(c1cccc(F)c1)c1cc(NC(=O)Cc2ccccc2Cl)ccn1 [Example 54, N-{4-[2-(2-chlorophenyl)acetamido]pyridin-2-yl}-N-(3-fluorophenyl)acetamide] |
| 102 | 611 | 289 | 99 | CC(=O)N(c1cccc(F)c1)c1cc(NC(=O)Cc2ccc(F)cc2Cl)ccn1 [Example 55, N-{4-[2-(2-chloro-4-fluorophenyl)acetamido]pyridin-2-yl}-N-(3-fluorophenyl)acetamide] |
| 97 | 260 | 190 | 98 | CC(=O)N(c1cccc(F)c1)c1cc(NC(=O)Cc2c(Cl)cccc2Cl)ccn1 [Example 56, N-{4-[2-(2,6-dichlorophenyl)acetamido]pyridin-2-yl}-N-(3-fluorophenyl)acetamide] |
| 99 | 377 | 122 | 97 | CC(=O)N(c1cccc(F)c1)c1cc(NC(=O)Cc2c(Cl)cc(F)cc2Cl)ccn1 [Example 57, N-{4-[2-(2,6-dichloro-4-fluorophenyl)acetamido]pyridin-2-yl}-N-(3-fluorophenyl)acetamide] |
| 95 | 351 | 350 | 86 | CC(=O)N(c1ccc(Cl)c(F)c1)c1cc(NC(=O)Cc2ccccc2Cl)ccn1 [Example 58, N-(4-chloro-3-fluorophenyl)-N-{4-[2-(2-chlorophenyl)acetamido]pyridin-2-yl}acetamide] |

Second part, the molecule before the results:

| Structure (SMILES) | Human P2X4 HEK Cells (FLIPR Assay) avg Efficacy (human P2X4) [%] | IC50 (human P2X4) [nM] | IC50 (rat P2X4) [nM] | Rat P2X4 1321N1 Astrocytoma Cells (FLIPR Assay) avg Efficacy (rat P2X4) [%] |
| --- | --- | --- | --- | --- |
| CC(=O)N(c1ccc(F)cc1)c1cc(NC(=O)Cc2ccccc2OC(F)(F)F)ccn1 [Example 42, N-(4-fluorophenyl)-N-(4-{2-[2-(trifluoromethoxy)phenyl]acetamido}pyridin-2-yl)acetamide] | 98 | 350 | 1360 | 96 |
| CC(=O)N(c1ccc(C)cc1)c1cc(NC(=O)Cc2cccc(F)c2Cl)ccn1 [Example 45, N-{4-[2-(2-chloro-3-fluorophenyl)acetamido]pyridin-2-yl}-N-(4-methylphenyl)acetamide] | 102 | 485 | 1180 | 100 |
| CC(=O)N(c1ccc(F)c(Cl)c1)c1cc(NC(=O)Cc2ccccc2Cl)ccn1 [Example 50, N-(3-chloro-4-fluorophenyl)-N-{4-[2-(2-chlorophenyl)acetamido]pyridin-2-yl}acetamide] | 95 | 351 | 213 | 96 |
| CC(=O)N(c1ccc(F)c(Cl)c1)c1cc(NC(=O)Cc2ccc(F)cc2Cl)ccn1 [Example 51, N-(3-chloro-4-fluorophenyl)-N-{4-[2-(2-chloro-4-fluorophenyl)acetamido]pyridin-2-yl}acetamide] | 98 | 493 | 177 | 96 |
| CC(=O)N(c1ccc(F)c(Cl)c1)c1cc(NC(=O)Cc2cccc(F)c2Cl)ccn1 [Example 52, N-(3-chloro-4-fluorophenyl)-N-{4-[2-(2-chloro-3-fluorophenyl)acetamido]pyridin-2-yl}acetamide] | 98 | 355 | 358 | 99 |
| CC(=O)N(c1ccc(Cl)c(F)c1)c1cc(NC(=O)Cc2ccc(F)cc2Cl)ccn1 [Example 59, N-(4-chloro-3-fluorophenyl)-N-{4-[2-(2-chloro-4-fluorophenyl)acetamido]pyridin-2-yl}acetamide] | 97 | 532 | 240 | 81 |
| CC(=O)N(c1ccc(Cl)c(F)c1)c1cc(NC(=O)Cc2cccc(F)c2Cl)ccn1 [Example 60, N-(4-chloro-3-fluorophenyl)-N-{4-[2-(2-chloro-3-fluorophenyl)acetamido]pyridin-2-yl}acetamide] | 96 | 454 | 434 | 94 |
| CC(=O)N(c1ccc(F)c(F)c1)c1cc(NC(=O)Cc2cccc(C)c2C)ccn1 [Example 62, N-(3,4-difluorophenyl)-N-{4-[2-(2,3-dimethylphenyl)acetamido]pyridin-2-yl}acetamide] | 91 | 251 | 368 | 91 |
| CC(=O)N(c1ccc(F)c(F)c1)c1cc(NC(=O)Cc2ccccc2C(F)(F)F)ccn1 [Example 63, N-(3,4-difluorophenyl)-N-(4-{2-[2-(trifluoromethyl)phenyl]acetamido}pyridin-2-yl)acetamide] | 97 | 424 | 372 | 97 |
| CC(=O)N(c1ccc(F)c(F)c1)c1cc(NC(=O)Cc2c(C)cc(Cl)cc2Cl)ccn1 [Example 64, N-{4-[2-(2,4-dichloro-6-methylphenyl)acetamido]pyridin-2-yl}-N-(3,4-difluorophenyl)acetamide] | 96 | 829 | 497 | 100 |
| CC(=O)N(c1ccc(F)c(F)c1)c1cc(NC(=O)Cc2c(C)cc(C)cc2Cl)ccn1 [Example 65, N-{4-[2-(2-chloro-4,6-dimethylphenyl)acetamido]pyridin-2-yl}-N-(3,4-difluorophenyl)acetamide] | 94 | 505 | 122 | 93 |
| CC(=O)N(c1ccc(F)c(F)c1)c1cc(NC(=O)Cc2c(C)cccc2C)ccn1 [Example 66, N-(3,4-difluorophenyl)-N-{4-[2-(2,6-dimethylphenyl)acetamido]pyridin-2-yl}acetamide] | 90 | 303 | 64.2 | 73 |
| CC(=O)N(c1ccc(F)c(F)c1)c1cc(NC(=O)Cc2ccc(Cl)cc2Cl)ccn1 [Example 67, N-{4-[2-(2,4-dichlorophenyl)acetamido]pyridin-2-yl}-N-(3,4-difluorophenyl)acetamide] | 94 | 604 | 159 | 97 |
